Data taken from patent US9403786B2, “Anti-inflammatory compounds” (University of South Australia, priority 2009, dated 2016).

Tested on: TPA-induced mouse ear oedema
Experiment: TPA-induced mouse ear oedema model
Format: in vivo, Male Balb/C mice
Protocol: Anti-inflammatory activity was measured in the mouse ear oedema model using 12-O-tetradeconoylphorbol-13-acetate (TPA) (Sigma) or croton oil as the inducer of inflammation (Sanchez, T and Moreno, J 1999, Role of leukocyte influx in tissue prostaglandin H synthase-2 overexpression induced by phorbol ester and arachidonic acid in skin, Biochemical Pharmacology, 58, 877-879.). Male Balb/C mice 7-9 weeks old and weighing 20-25 g were used. Mice were housed in cages at constant room temperature (20±2° C.) with access to food (standard rat/mouse pellet) and water ad libitum. A 12 hr day/night cycle was maintained in the animal holding facility (Reid building animal house, University of South Australia) and all experiments were carried out during the day phase.
Baseline measurements of ear thickness were measured using a digital micrometer (±0.001 mm, Mitutoyo, Japan) prior to the experiment. TPA (2.5 μg/ear), which was dissolved in acetone, was then applied in a volume of 20 μL to the inner surface of the right ear and 20 μL of acetone to the left ear as control. After thirty minutes the test samples, which were dissolved in 80% ethanol, were applied to the inner surface of the right ear and 80% ethanol on the left ear to the respective treatment groups. Betamethasone 17,21-dipropionate (Sigma) (0.9 μmol/ear) was used as a positive control. Multi-dose experiments were conducted over the range 0.005-1.83 μmol/ear. At 2 h, 4 h, 6 h, 8 h, 24 h and 48 h after the application, the ear thicknesses were measured using a digital micrometer. A non-treated control group to which only croton oil or TPA were applied was used as a measure of maximum inflammation achieved with percent inhibition of inflammation of test sample being calculated relative to this group. Following completion of the experiment, mice were euthanized by inhalation of isoflurane followed by cervical dislocation.

With “15,16-epoxy-8(α)-(benzoyloxy)methyl-cleroda-3,13(16), 14-trien-18-oic acid [Compound E]” the anti-inflammatory activity (TPA-induced mouse ear oedema model) was “significant anti-inflammatory activity”, the maximum inhibition (dose of 0.91 μmol) was 76.4±7.3% and the “effect at lower concentrations” value (doses lower than 1.83 μmol/ear) was “no observable effect”. For the same substance, the “activity when compared to TPA only control” value (highest dose tested 1.83 μmol/ear, p<0.05) was “some significant level of activity”.
